From US9023789B2, “Amylin analogs and pharmaceutical compositions thereof” (Novo Nordisk A/S, priority 2012, dated 2015)
pEC50, pIC50: −log10 of the molar value. Numbered stars: 1 amine (or outer) side, 2 acyl side, 3 side chain; on linkers, the order of the positions; unused ones are H or OH. Bridge positions count the residues as written; N and C are the ends. Side chains are listed from the residue outwards. Peptide text beside a SMILES is read from it. * marks the point of attachment. C20 diacid = O=C(O)CCCCCCCCCCCCCCCCCCC(=O)*; γGlu = O=C(O)[C@H](CCC(=O)[*:2])N[*:1]; AEEA = NCCOCCOCC(=O)O

Assays:
[1] = target: T1, human amylin 3(a) receptor (human calcitonin receptor + RAMP-3) in BHK570 cells (Homo sapiens, UniProt O60896+P30988); assay: ASSAY (II)a functional assay, human amylin receptor (CRE luciferase); assay type: cell-based; details: for pEC50: human amylin receptor functional potency, assay (II), read-out: hAmylin-R funct. EC50
T1 construct: expressed in transfected cells
Procedure, shortened: (§1)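 Cells were seeded and cultured overnight, then incubated with standard or sample for 3 h at 37° C in serum-containing medium at pH 7.4. The medium was then swapped for PBS, LucLite was added for 30 min at room temperature, and luminescence was recorded. Cells were BHK with CRE-luc and calcitonin receptor, ± RAMP-3.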

[2] = target: T2, human calcitonin (a) receptor in BHK570 cells (Homo sapiens, UniProt P30988); assay: ASSAY (II)a functional assay, human calcitonin receptor (CRE luciferase); assay type: cell-based; details: read-out: hCTR funct. EC50
T2 construct: expressed in transfected cells
T2 sequence (P30988 25-474): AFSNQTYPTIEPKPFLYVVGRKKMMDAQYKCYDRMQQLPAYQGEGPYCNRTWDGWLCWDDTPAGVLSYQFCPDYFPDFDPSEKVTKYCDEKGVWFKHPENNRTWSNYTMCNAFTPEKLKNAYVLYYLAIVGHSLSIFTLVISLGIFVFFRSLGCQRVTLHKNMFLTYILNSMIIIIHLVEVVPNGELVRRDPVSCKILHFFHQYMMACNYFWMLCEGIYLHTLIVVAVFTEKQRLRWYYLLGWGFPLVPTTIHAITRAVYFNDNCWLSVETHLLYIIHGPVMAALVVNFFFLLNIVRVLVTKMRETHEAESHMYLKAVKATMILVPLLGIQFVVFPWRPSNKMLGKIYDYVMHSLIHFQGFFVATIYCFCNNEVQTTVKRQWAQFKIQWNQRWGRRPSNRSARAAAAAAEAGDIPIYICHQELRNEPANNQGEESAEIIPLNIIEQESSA
Procedure, shortened: as §1

[3] = target: T3, human amylin receptor (membranes from Amylin 3(a)/CRE-luc cells) (Homo sapiens, UniProt O60896+P30988); assay: ASSAY (V) binding to the human amylin receptor (SPA, 125I-rat amylin); details: for pIC50: Table 4, read-out: hAmylin-R bind IC50;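 for all read-outs here: competition binding of cell membranes (35 ng/µL) mixed with SPA beads in 384-well plates at 40 µL total volume, read by scintillation counting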
T3 construct: expressed in transfected cells
T3 sequence (P30988 25-474): T2 sequence (P30988 25-474)
T3 sequence (O60896 24-148 partner): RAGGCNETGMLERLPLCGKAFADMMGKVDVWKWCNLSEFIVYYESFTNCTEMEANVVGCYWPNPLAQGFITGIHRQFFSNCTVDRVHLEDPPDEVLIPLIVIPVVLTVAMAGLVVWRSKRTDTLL

[4] = target: T4, rat amylin receptor (rat calcitonin receptor + rat RAMP 3) (Rattus norvegicus, UniProt P32214+Q9JJ73); assay: ASSAY (VI) binding to the rat amylin receptor; details: for pIC50: binding to rat amylin receptor, read-out: rAmylin-R bind IC50
T4 construct: expressed in transfected cells; host or cells: BHK tk'ts 13 (transient, FuGENE 6), membranes
T4 sequence (P32214 25-479 isoform P32214-2 limits assumed): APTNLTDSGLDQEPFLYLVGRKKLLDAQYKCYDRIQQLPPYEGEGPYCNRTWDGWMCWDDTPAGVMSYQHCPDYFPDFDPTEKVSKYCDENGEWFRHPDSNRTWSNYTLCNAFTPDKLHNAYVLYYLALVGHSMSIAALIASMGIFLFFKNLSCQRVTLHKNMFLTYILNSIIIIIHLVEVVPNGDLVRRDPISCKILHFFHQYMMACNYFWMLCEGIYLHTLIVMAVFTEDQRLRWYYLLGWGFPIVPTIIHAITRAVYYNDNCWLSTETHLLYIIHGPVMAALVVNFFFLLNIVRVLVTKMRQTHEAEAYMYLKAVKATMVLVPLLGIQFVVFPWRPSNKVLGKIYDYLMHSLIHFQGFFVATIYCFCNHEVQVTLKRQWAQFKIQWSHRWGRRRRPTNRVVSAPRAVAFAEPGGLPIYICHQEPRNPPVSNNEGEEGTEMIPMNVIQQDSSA
T4 sequence (Q9JJ73 23-147 partner): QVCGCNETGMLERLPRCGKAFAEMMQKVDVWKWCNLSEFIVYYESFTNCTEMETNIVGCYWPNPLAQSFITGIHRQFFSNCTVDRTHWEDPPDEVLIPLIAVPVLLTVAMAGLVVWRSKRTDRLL
Procedure, shortened: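 Binding to the rat amylin receptor was determined with membrane preparations. The receptor was expressed by transiently transfecting BHK tk′ts 13 cells with rat calcitonin receptor, using FuGENE® 6 (Roche) according to the manufacturer's recommendations. Roughly 48 hours later the cells were harvested and their membranes isolated.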

[5] = target: T5, human calcitonin receptor (Homo sapiens, UniProt P30988); assay: ASSAY (VII) binding to the human calcitonin receptor (SPA, 125I-Calcitonin); details: read-out: hCTR bind IC50;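 note: cell membranes (35 ng/µL) combined with SPA beads in 40 µL of pH 7.4 Hepes buffer, 384-well format, signal counted on a TopCounter instrument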
T5 construct: expressed in transfected cells
T5 sequence (P30988 25-474): T2 sequence (P30988 25-474)

rat calcitonin receptor = target: T6, rat calcitonin receptor (Rattus norvegicus, UniProt P32214); assay: ASSAY (VIII) binding to the rat calcitonin receptor; details: Table 7, read-out: rCTR bind IC50
T6 construct: expressed in transfected cells; host or cells: BHK tk'ts 13 (transient, FuGENE 6), membranes
T6 sequence (P32214 25-479 isoform P32214-2 limits assumed): T4 sequence (P32214 25-479 isoform P32214-2 limits assumed)
Procedure, shortened: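 Membranes were prepared from BHK tk′ts 13 cells transiently transfected with rat calcitonin receptor. Cells were grown in DMEM with 10% FBS and harvested approximately 48 hours after transfection.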

[6] = hCTR funct. EC50 divided by hAmylin-R funct. EC50
[7] = hCTR funct. EC50 over hAmylin-R funct. EC50
[8] = human functional selectivity: hCTR funct. EC50 / hAmylin-R funct. EC50
[9] = Table 5, selectivity, hCTR bind IC50 / hAmylin-R bind IC50
[10] = Table 7, human binding selectivity, included for comparison
[11] = Table 7a (preferred compounds), human binding selectivity, included for comparison
[12] = Table 7, rat binding selectivity, rCTR IC50 / rAmylin-R IC50
[13] = Table 7a (preferred compounds), rat binding selectivity, rCTR IC50 / rAmylin-R IC50
[14] = Table 5a, selectivity, hCTR bind IC50 / hAmylin-R bind IC50
[15] = Table 5b, selectivity, hCTR bind IC50 / hAmylin-R bind IC50
[16] = Table 5c, selectivity, hCTR bind IC50 / hAmylin-R bind IC50
[17] = ratio of human calcitonin receptor binding IC50 to human amylin receptor binding IC50
[18] = ratio of rCTR bind IC50 to rAmylin-R bind IC50

## CC[C@H](C)[C@H](NC(=O)[C@H](C)NC(=O)CNC(=O)[C@H](Cc1ccccc1)NC(=O)[C@H](CC(N)=O)NC(=O)[C@@H]1CCCN1C(=O)[C@H](CO)NC(=O)[C@H](CO)NC(=O)[C@H](Cc1c[nH]cn1)NC(=O)[C@H](CCCNC(=N)N)NC(=O)[C@H](CC(C)C)NC(=O)[C@H](Cc1ccccc1)NC(=O)[C@H](CCC(=O)O)NC(=O)[C@H](C)NC(=O)[C@H](CC(C)C)NC(=O)[C@H](CCCNC(=N)N)NC(=O)[C@H](CCC(N)=O)NC(=O)[C@@H](NC(=O)[C@H](C)NC(=O)[C@@H]1CSSC[C@H](NC(=O)[C@H](CCCCN)NC(=O)CC[C@H](NC(=O)CCCCCCCCCCCCCCCCCCC(=O)O)C(=O)O)C(=O)N[C@@H](CC(N)=O)C(=O)N[C@@H]([C@@H](C)O)C(=O)N[C@@H](C)C(=O)N[C@@H]([C@@H](C)O)C(=O)N1)[C@@H](C)O)C(=O)N1CCC[C@H]1C(=O)N[C@@H](CO)C(=O)N[C@@H](CO)C(=O)N[C@H](C(=O)N[C@@H](CC(N)=O)C(=O)N[C@H](C(=O)NCC(=O)N[C@@H](CO)C(=O)N[C@@H](Cc1c[nH]cn1)C(=O)N[C@H](C(=O)N[C@@H](Cc1ccc(O)cc1)C(N)=O)[C@@H](C)O)C(C)C)[C@@H](C)O [Example 18] ({C20 diacid-γGlu}-KCNTATCATQRLAEFLRHSSPNFGAIPSSTNVGSHTY-NH2; disulfide 2-7)
[1]; hCTR funct. EC50 / hAmylin-R funct. EC50
  Ratio hCT/hAmylin funct.: 4.8
[1]; [6]
  Ratio hCT/hAmylin funct.: 4.8
[1]; [7]
  Ratio hCT/hAmylin funct.: 4.8
[1]
  pEC50: 9.81
[1]; [8]
  Ratio hCT/hAmylin funct.: 4.8
[2]
  pEC50: 9.13
[3]
  pIC50: 9.26
[3]; [9]
  Ratio hCT/hAmylin binding: 9.2
[3]; [10]
  Ratio hCT/hAmylin binding: 9.2
[3]; [11]
  Ratio hCT/hAmylin binding: 9.2
[4]; Table 7
  pIC50: 9.32
[4]; [12]
  Ratio rCT/rAmylin binding: 27.3
[4]; [13]
  Ratio rCT/rAmylin binding: 27.3
[5]
  pIC50: 8.29
Rat calcitonin receptor
  pIC50: 7.89

## CC[C@H](C)[C@H](NC(=O)[C@H](C)NC(=O)CNC(=O)[C@H](Cc1ccccc1)NC(=O)[C@H](CC(N)=O)NC(=O)[C@@H]1CCCN1C(=O)[C@H](CO)NC(=O)[C@H](CO)NC(=O)[C@H](Cc1c[nH]cn1)NC(=O)[C@H](CCCNC(=N)N)NC(=O)[C@H](CC(C)C)NC(=O)[C@H](Cc1ccccc1)NC(=O)[C@H](CC(N)=O)NC(=O)[C@H](C)NC(=O)[C@H](CC(C)C)NC(=O)[C@H](CCCNC(=N)N)NC(=O)[C@H](CCC(N)=O)NC(=O)[C@@H](NC(=O)[C@H](C)NC(=O)[C@@H]1CSSC[C@H](NC(=O)[C@@H](N)CCCCNC(=O)COCCOCCNC(=O)CC[C@H](NC(=O)CCCCCCCCCCCCCCCCCCC(=O)O)C(=O)O)C(=O)N[C@@H](CC(N)=O)C(=O)N[C@@H]([C@@H](C)O)C(=O)N[C@@H](C)C(=O)N[C@@H]([C@@H](C)O)C(=O)N1)[C@@H](C)O)C(=O)N1CCC[C@H]1C(=O)N[C@@H](CO)C(=O)N[C@@H](CO)C(=O)N[C@H](C(=O)N[C@@H](CC(N)=O)C(=O)N[C@H](C(=O)NCC(=O)N[C@@H](CO)C(=O)N[C@@H](CCC(=O)O)C(=O)N[C@H](C(=O)N[C@@H](Cc1ccc(O)cc1)C(N)=O)[C@@H](C)O)C(C)C)[C@@H](C)O [Example 26] (H-K([AEEA-γGlu-C20 diacid])CNTATCATQRLANFLRHSSPNFGAIPSSTNVGSETY-NH2; disulfide 2-7; N-terminus assumed)
[1]; [6]
  Ratio hCT/hAmylin funct.: 29.9
[1]; [7]
  Ratio hCT/hAmylin funct.: 29.9
[1]
  pEC50: 9.67
[1]; [8]
  Ratio hCT/hAmylin funct.: 29.9
[2]
  pEC50: 8.20
[3]
  pIC50: 9.27
[3]; [9]
  Ratio hCT/hAmylin binding: 47.5
[3]; [14]
  Ratio hCT/hAmylin binding: 47.5
[3]; [15]
  Ratio hCT/hAmylin binding: 47.5
[3]; [16]
  Ratio hCT/hAmylin binding: 47.5
[3]; [10]
  Ratio hCT/hAmylin binding: 47.5
[3]; [11]
  Ratio hCT/hAmylin binding: 47.5
[3]; [17]
  Ratio hCT/hAmylin binding: 47.5
[4]; Table 7
  pIC50: 9.31
[4]; [12]
  Ratio rCT/rAmylin binding: 309.2
[4]; [13]
  Ratio rCT/rAmylin binding: 309.2
[4]; [18]
  Ratio rCT/rAmylin binding: 309.2
[5]
  pIC50: 7.60
Rat calcitonin receptor
  pIC50: 6.82

## CC[C@H](C)[C@H](NC(=O)[C@H](C)NC(=O)CNC(=O)[C@H](Cc1ccccc1)NC(=O)[C@H](CC(N)=O)NC(=O)[C@@H]1CCCN1C(=O)[C@H](CO)NC(=O)[C@H](CO)NC(=O)[C@H](Cc1c[nH]cn1)NC(=O)[C@H](CCCNC(=N)N)NC(=O)[C@H](CC(C)C)NC(=O)[C@H](Cc1ccccc1)NC(=O)[C@H](CC(N)=O)NC(=O)[C@H](C)NC(=O)[C@H](CC(C)C)NC(=O)[C@H](CCCNC(=N)N)NC(=O)[C@H](CCC(N)=O)NC(=O)[C@@H](NC(=O)[C@H](C)NC(=O)[C@@H]1CSSC[C@H](NC(=O)[C@H](CCCCN)NC(=O)CC[C@H](NC(=O)CCCCCCCCCCCCCCCCCCC(=O)O)C(=O)O)C(=O)N[C@@H](CC(N)=O)C(=O)N[C@@H]([C@@H](C)O)C(=O)N[C@@H](C)C(=O)N[C@@H]([C@@H](C)O)C(=O)N1)[C@@H](C)O)C(=O)N1CCC[C@H]1C(=O)N[C@@H](CO)C(=O)N[C@@H](CO)C(=O)N[C@H](C(=O)N1CCC[C@H]1C(=O)N[C@H](C(=O)NCC(=O)N[C@@H](CO)C(=O)N[C@@H](CCC(=O)O)C(=O)N[C@H](C(=O)N[C@@H](Cc1ccc(O)cc1)C(N)=O)[C@@H](C)O)C(C)C)[C@@H](C)O [Example 28] ({C20 diacid-γGlu}-KCNTATCATQRLANFLRHSSPNFGAIPSSTPVGSETY-NH2; disulfide 2-7 (inferred))
[1]; [6]
  Ratio hCT/hAmylin funct.: 9.2
[1]; [7]
  Ratio hCT/hAmylin funct.: 9.2
[1]
  pEC50: 9.66
[1]; [8]
  Ratio hCT/hAmylin funct.: 9.2
[2]
  pEC50: 8.69
[3]
  pIC50: 9.21
[3]; [9]
  Ratio hCT/hAmylin binding: 20.5
[3]; [14]
  Ratio hCT/hAmylin binding: 20.5
[3]; [15]
  Ratio hCT/hAmylin binding: 20.5
[3]; [16]
  Ratio hCT/hAmylin binding: 20.5
[3]; [10]
  Ratio hCT/hAmylin binding: 20.5
[3]; [11]
  Ratio hCT/hAmylin binding: 20.5
[3]; [17]
  Ratio hCT/hAmylin binding: 20.5
[4]; Table 7
  pIC50: 8.91
[4]; [12]
  Ratio rCT/rAmylin binding: 44.9
[4]; [13]
  Ratio rCT/rAmylin binding: 44.9
[4]; [18]
  Ratio rCT/rAmylin binding: 44.9
[5]
  pIC50: 7.90
Rat calcitonin receptor
  pIC50: 7.26
